Measured values: BindingDB's records for doi:10.1016/j.bmcl.2008.08.034 (University of Illinois At Chicago, 2008)

The compounds below were run against T1, 1-deoxy-D-xylulose-5-phosphate synthase (Mycobacterium tuberculosis (strain ATCC 25618 / H37Rv), UniProt P9WNS3) (assay: Inhibition of Mycobacterium tuberculosis cloned 1-deoxy-D-xylulose-5-phosphate synthase expressed in Escherichia coli).
T1 sequence (P9WNS3 whole entry): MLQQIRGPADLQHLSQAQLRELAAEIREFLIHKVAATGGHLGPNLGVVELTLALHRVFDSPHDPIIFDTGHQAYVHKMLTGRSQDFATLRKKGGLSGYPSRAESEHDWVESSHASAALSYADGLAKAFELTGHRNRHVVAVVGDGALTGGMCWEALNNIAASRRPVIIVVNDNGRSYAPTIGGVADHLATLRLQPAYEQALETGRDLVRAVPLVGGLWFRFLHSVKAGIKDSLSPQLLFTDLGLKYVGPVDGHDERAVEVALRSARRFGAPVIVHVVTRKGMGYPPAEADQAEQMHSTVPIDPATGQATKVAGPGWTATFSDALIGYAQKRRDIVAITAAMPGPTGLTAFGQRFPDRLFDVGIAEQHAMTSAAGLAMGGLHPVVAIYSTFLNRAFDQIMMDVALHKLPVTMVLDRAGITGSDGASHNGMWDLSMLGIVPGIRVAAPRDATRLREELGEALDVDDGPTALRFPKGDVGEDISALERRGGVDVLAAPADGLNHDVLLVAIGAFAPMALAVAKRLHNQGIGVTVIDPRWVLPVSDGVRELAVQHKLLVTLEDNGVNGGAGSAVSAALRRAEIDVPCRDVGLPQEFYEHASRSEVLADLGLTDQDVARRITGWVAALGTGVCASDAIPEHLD

Structure (SMILES) | IC50
Cc1cc(=O)n2[nH]c(C(F)(F)F)c(-c3ccc(Br)cc3)c2n1 [3-(4-bromophenyl)-5-methyl-2-(trifluoromethyl)pyrazolo[1,5-a]pyrimidin-7(4H)-one] | > 200 µM
O=c1cc(CCl)nc2c(-c3ccccc3)c[nH]n12 [5-(chloromethyl)-3-phenylpyrazolo[1,5-a]pyrimidin-7(4H)-one] | > 200 µM
Cc1cc(=O)n2[nH]cc(-c3ccc(Cl)cc3)c2n1 [3-(4-chlorophenyl)-5-methylpyrazolo[1,5-a]pyrimidin-7(4H)-one] | > 200 µM
COCc1cc(O)n2nc(C)c(-c3ccc(Cl)cc3)c2n1 [3-(4-chlorophenyl)-5-(methoxymethyl)-2-methylpyrazolo[1,5-a]pyrimidin-7(4H)-one] | > 200 µM
CCCc1c(-c2ccccc2)nc2c(-c3ccccc3)c(C)[nH]n2c1=O [2-methyl-3,5-diphenyl-6-propylpyrazolo[1,5-a]pyrimidin-7(4H)-one] | 17.9 µM
Cc1nc2c(-c3ccc(Cl)cc3)c(C(F)(F)F)[nH]n2c(=O)c1Cc1ccccc1 | > 200 µM
COCc1cc(=O)n2[nH]cc(-c3ccc(Cl)cc3)c2n1 [3-(4-chlorophenyl)-5-(methoxymethyl)pyrazolo[1,5-a]pyrimidin-7(4H)-one] | > 200 µM
